Experiment [1] has as its target T1, full length N-terminally FLAG-tagged PARP1 (Homo sapiens, UniProt P09874). The experiment in a line: PARP1 biochemical DELFIA assay (auto-PARylation). Further details: recombinant full length human N-terminally FLAG-tagged PARP1.
Experiment [2] deals with T2, N-terminally FLAG-tagged PARP2 (amino acids 1-583) (Homo sapiens, UniProt Q9UGN5).
T2 construct: N-terminally FLAG-tagged PARP2 (amino acids 1-583)
The experiment is described as follows: PARP2 probe displacement HTRF assay. The experiment is classed as binding. The following applies: binned Kd. How it is done: Data analysis was performed identical as for PARP1.
In general terms: In TR-FRET formats the signal depends on donor and acceptor labels being close together.

Experiment [3] deals with T1, full length N-terminally FLAG-tagged PARP1. The experiment is described as follows: PARP1 probe displacement HTRF assay. The following applies: for Selectivity: PARP1 over PARP2, ratio Kd (PARP2)/Kd (PARP1); for pKd: binned Kd.
Setting [4] is: binned IC50, biochemical auto-PARylation assay.
The mark [5] stands for this setting: read-out: PARP1 HTRF, probe displacement HTRF.
Setting [6] is: binned IC50, PARP1 biochemical DELFIA assay.
[7] abbreviates: read-out: PARP1 HTRF, PARP1 probe displacement HTRF.

The structures appear in SMILES notation. pIC50, pKd: −log10 of the molar value. Read-outs that look alike come from different tables or passages of the source.

T2 sequence (Q9UGN5 whole entry, the tested form may be a part): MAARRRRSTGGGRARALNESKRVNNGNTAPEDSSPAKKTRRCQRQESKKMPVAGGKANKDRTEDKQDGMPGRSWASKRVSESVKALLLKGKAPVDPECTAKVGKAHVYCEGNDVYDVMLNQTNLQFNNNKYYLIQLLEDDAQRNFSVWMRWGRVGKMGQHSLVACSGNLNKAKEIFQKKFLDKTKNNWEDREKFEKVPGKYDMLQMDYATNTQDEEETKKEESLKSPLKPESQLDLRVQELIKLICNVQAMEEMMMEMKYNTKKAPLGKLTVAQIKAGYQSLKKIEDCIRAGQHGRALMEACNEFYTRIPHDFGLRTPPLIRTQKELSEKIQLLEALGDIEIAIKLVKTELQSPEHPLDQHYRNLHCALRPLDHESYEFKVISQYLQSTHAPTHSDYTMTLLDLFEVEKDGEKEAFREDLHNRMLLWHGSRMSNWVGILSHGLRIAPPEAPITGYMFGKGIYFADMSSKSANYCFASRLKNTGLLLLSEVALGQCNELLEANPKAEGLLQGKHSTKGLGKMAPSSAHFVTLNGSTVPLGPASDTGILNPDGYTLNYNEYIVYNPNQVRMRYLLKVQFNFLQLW
T1 sequence (P09874 whole entry, the tested form may be a part): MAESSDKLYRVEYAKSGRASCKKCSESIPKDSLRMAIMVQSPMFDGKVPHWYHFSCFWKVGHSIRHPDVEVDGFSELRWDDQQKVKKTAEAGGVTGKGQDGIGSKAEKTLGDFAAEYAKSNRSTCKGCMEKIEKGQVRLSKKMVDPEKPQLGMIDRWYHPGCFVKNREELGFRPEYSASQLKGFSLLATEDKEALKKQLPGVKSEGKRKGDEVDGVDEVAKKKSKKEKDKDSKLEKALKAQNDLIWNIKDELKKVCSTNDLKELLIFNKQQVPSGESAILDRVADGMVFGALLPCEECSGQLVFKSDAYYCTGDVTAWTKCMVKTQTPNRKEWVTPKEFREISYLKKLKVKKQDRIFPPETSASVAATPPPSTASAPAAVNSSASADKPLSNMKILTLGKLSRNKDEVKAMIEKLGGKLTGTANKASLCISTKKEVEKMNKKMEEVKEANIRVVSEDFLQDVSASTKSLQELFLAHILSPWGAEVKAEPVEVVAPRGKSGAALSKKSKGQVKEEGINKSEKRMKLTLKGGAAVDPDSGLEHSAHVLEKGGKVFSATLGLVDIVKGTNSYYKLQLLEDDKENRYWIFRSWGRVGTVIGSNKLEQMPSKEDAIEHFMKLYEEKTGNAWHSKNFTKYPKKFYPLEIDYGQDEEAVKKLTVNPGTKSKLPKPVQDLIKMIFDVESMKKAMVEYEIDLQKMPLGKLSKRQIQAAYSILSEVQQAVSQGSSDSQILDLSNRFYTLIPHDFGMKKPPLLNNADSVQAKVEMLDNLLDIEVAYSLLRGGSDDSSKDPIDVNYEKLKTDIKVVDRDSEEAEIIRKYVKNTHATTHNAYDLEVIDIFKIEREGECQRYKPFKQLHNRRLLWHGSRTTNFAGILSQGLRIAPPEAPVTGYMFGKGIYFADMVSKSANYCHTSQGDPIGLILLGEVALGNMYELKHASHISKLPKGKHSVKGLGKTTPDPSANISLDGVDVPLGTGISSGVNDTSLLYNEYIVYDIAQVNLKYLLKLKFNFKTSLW

The pIC50 is the IC50 on a negative log10 scale, so that one unit is a factor of ten. Turning to `N#Cc1ccc(N2CCC(N3CCC(c4cc5ccc(F)cc5c(=O)[nH]4)C3)CC2)c(F)c1` (single isomer, unassigned) [Compound 385a], in experiment [1] (setting [4]), the pIC50 is above 8.00. The pKd was 5.00 to 6.00 in experiment [2] (probe displacement HTRF) and above 8.00 in experiment [3] (setting [5]). Also, the Selectivity result in experiment [3] (probe displacement HTRF) is “+++ (+++ indicate a value of at least 100)”.

Consider `CNC(=O)c1ccc(N2CCC(N3CCC(c4cc5c(F)ccc(F)c5c(=O)[nH]4)C3)CC2)c(F)n1` (racemic) [Compound 268rac], for which the pIC50 in experiment [1] (setting [4]) is above 8.00. For the same compound, the pKd in experiment [2] (probe displacement HTRF) was 6.00 to 7.00; in experiment [3] (setting [5]), above 8.00. Moreover, in experiment [3] (probe displacement HTRF), the Selectivity entry is given as “+++ (+++ indicate a value of at least 100)”. Turning to `CNC(=O)c1ccc(N2CCC(N3CCC(c4nc5ccccc5c(=O)[nH]4)C3)CC2)nc1` (single isomer, unassigned) [Compound 46a], in experiment [1] (setting [6]), the pIC50 was above 8.00. Further, the pKd in experiment [2] (PARP2 probe displacement HTRF) was 5.00 to 6.00; in experiment [3] (setting [7]), 7.00 to 8.00. Also, the Selectivity result in experiment [3] (probe displacement HTRF) is “+++ (+++ indicate a value of at least 100)”. As to `CNC(=O)c1cnc(N2CCC(N3CCCC(c4nc5ccccc5c(=O)[nH]4)C3)CC2)cn1` (single isomer, unassigned) [Compound 99a], the pIC50 in experiment [1] (setting [6]) is 5.00 to 6.00. The pKd in experiment [2] (PARP2 probe displacement HTRF) is below 5.00; in experiment [3] (setting [7]) it was 5.00 to 6.00. In addition, the Selectivity entry in experiment [3] (probe displacement HTRF) was “− (− indicates a value of less than 10)”. With `CNC(=O)c1ccc(N2CCC(N3CCC(c4nc(C)cc(=O)[nH]4)C3)CC2)cn1` (single isomer, unassigned) [Compound 97a], the pIC50 in experiment [1] (setting [6]) was below 5.00. The pKd in experiment [2] (PARP2 probe displacement HTRF) and in experiment [3] (setting [7]) was below 5.00 in each case. For the same compound, the Selectivity entry in experiment [3] (probe displacement HTRF) is “− (− indicates a value of less than 10)”. For the compound `CCNC(=O)c1ccc(N2CCC(N3CCC(c4ccc(CC)c(=O)[nH]4)C3)CC2)c(F)n1` (racemic) [Compound 264rac], in experiment [1] (setting [4]), the pIC50 is above 8.00. Moreover, the results for the pKd in experiment [2] (probe displacement HTRF) and in experiment [3] (setting [5]) were 6.00 to 7.00 and above 8.00, respectively. The Selectivity entry in experiment [3] (probe displacement HTRF) is “+++ (+++ indicate a value of at least 100)”. With `CNC(=O)c1ccc(N2CCC(N3CCC(c4cc5cccc(F)c5c(=O)[nH]4)C3)CC2)cn1` (racemic) [Compound 136rac, 5-{4-[3-(8-fluoro-1-oxo-2H-isoquinolin-3-yl)pyrrolidin-1-yl]piperidin-1-yl}-N-methylpyridine-2-carboxamide], in experiment [1] (setting [6]), the pIC50 was above 8.00. In addition, the pKd in experiment [2] (PARP2 probe displacement HTRF) is 7.00 to 8.00; in experiment [3] (PARP1 HTRF, PARP1 probe displacement HTRF), above 8.00. In addition, the Selectivity entry in experiment [3] (probe displacement HTRF) was “+++ (+++ indicate a value of at least 100)”. As for `CNC(=O)c1ccc(N2CCC(N3CCC(c4cc5c(Cl)cccc5c(=O)[nH]4)C3)CC2)cn1` (single isomer, unassigned) [Compound 137a], in experiment [1] (setting [6]), the pIC50 is above 8.00. The pKd was 6.00 to 7.00 in experiment [2] (PARP2 probe displacement HTRF) and above 8.00 in experiment [3] (setting [7]). Also, the Selectivity result in experiment [3] (probe displacement HTRF) is recorded as “+++ (+++ indicate a value of at least 100)”. In the case of `CCc1ccc(C2CCN(C3CCN(c4ccc(C(=O)NC)cc4F)CC3)C2)[nH]c1=O` (single isomer, unassigned) [Compound 366b], the pIC50 in experiment [1] (setting [4]) was above 8.00. Besides, the results for the pKd in experiment [2] (probe displacement HTRF) and in experiment [3] (setting [5]) were 6.00 to 7.00 and above 8.00, respectively. Moreover, in experiment [3] (probe displacement HTRF), the Selectivity result is given as “++ (++ indicates a value of 50 to less than 100)”. For the compound `CNC(=O)c1ccc(N2CCC(N3CCCC(c4ncc(C(F)(F)F)c(=O)[nH]4)C3)CC2)cn1` (single isomer, unassigned) [Compound 73a], the pIC50 in experiment [1] (setting [6]) was 6.00 to 7.00. In addition, the pKd was below 5.00 in experiment [2] (PARP2 probe displacement HTRF) and 6.00 to 7.00 in experiment [3] (setting [7]). For the same compound, in experiment [3] (probe displacement HTRF), the Selectivity result was “− (− indicates a value of less than 10)”. As for `O=c1[nH]c(C2CCN(C3CCN(c4ccccc4)CC3)C2)nc2ccccc12` (single isomer, unassigned) [Compound 32b], the pIC50 in experiment [1] (setting [6]) is 6.00 to 7.00.

With `CNC(=O)c1ccc(N2CCC(N3CCC(c4cc5cc(O)ccc5c(=O)[nH]4)C3)CC2)cn1` (single isomer, unassigned) [Compound 357b], the pIC50 in experiment [1] (setting [4]) is 7.00 to 8.00. Further, the pKd is 5.00 to 6.00 in experiment [2] (probe displacement HTRF) and above 8.00 in experiment [3] (setting [5]). For the same compound, the Selectivity result in experiment [3] (probe displacement HTRF) is recorded as “+++ (+++ indicate a value of at least 100)”.

With `CNC(=O)c1ccc(N2CCC(N3CCCC(c4ccc(C5CC5)c(=O)[nH]4)C3)CC2)cn1` (single isomer, unassigned) [Compound 126b], in experiment [1] (setting [6]), the pIC50 was 6.00 to 7.00. Further, the pKd in experiment [2] (PARP2 probe displacement HTRF) is below 5.00; in experiment [3] (setting [7]), 6.00 to 7.00. In addition, in experiment [3] (probe displacement HTRF), the Selectivity entry is listed as “+ (+ indicates a value of 10 to less than 50)”. Consider `CNC(=O)c1ccc(OCCCN2CCCC(c3nc4ccccc4c(=O)[nH]3)C2)cn1` (single isomer, unassigned) [Compound 7b], for which the pIC50 in experiment [1] (setting [6]) is 6.00 to 7.00. Still for that read-out and setting: the value for `CNC(=O)c1ccc(N(C)CCCN2CCCC(c3nc4ccccc4c(=O)[nH]3)C2)cn1` (single isomer, unassigned) [Compound 16a] was 6.00 to 7.00; that for `CNC(=O)c1ccc(N2CCC(N3CCC(c4ncc(C)c(=O)[nH]4)C3)CC2)cn1` (single isomer, unassigned) [Compound 35a] was 6.00 to 7.00. Same read-out and setting: the value for `CNC(=O)c1ccc(N2CCC(N3CCC(c4nc5ccccc5c(=O)[nH]4)CC3)CC2)cn1` [Compound 1] was 6.00 to 7.00; that for `CNC(=O)c1ccc(N(C)CCCN2CCCC(c3nc4ccccc4c(=O)[nH]3)C2)cn1` (single isomer, unassigned) [Compound 16b] was 6.00 to 7.00; that for `CNC(=O)c1ccc(N2CCC(CN3CCC(c4ncc(C)c(=O)[nH]4)CC3)CC2)cn1` [Compound 30] was 6.00 to 7.00. `CCc1cnc(C2CCN(C3CCN(c4ccc(C(=O)NC)nc4)CC3)CC2)[nH]c1=O` [Compound 19]: the negative logarithm of the IC50 (pIC50) in experiment [1] (setting [6]) was 5.00 to 6.00. `CCc1cnc(C2CCCN(C3CCC(F)(F)CC3)C2)[nH]c1=O` (single isomer, unassigned) [Compound 24a]: the pIC50 in experiment [1] (setting [6]) was 5.00 to 6.00. As to `CCc1cnc(C2CCCN(C3CCN(c4ccc(C(=O)NC)nc4)CC3)C2)[nH]c1=O` (single isomer, unassigned) [Compound 31a], the pIC50 in experiment [1] (setting [6]) was 5.00 to 6.00. The same measure, in the same setting: the result for `CNC(=O)c1ccc(N2CCC(N3CCCC(c4ncc(C)c(=O)[nH]4)C3)CC2)cn1` (single isomer, unassigned) [Compound 33a] reads below 5.00. For the compound `CCc1cnc(-c2ccn(C3CCN(c4ccc(C(=O)NC)nc4)CC3)n2)[nH]c1=O` [Compound 25], the pIC50 in experiment [1] (setting [6]) was 6.00 to 7.00. On the same count and under the same terms, the result for `CNC(=O)c1ccc(N2CCC(c3nc4ccccc4c(=O)[nH]3)CC2)cn1` [Compound 5] reads 5.00 to 6.00; that for `CCc1cnc(C2CCN(CC3CCN(c4ccc(C(=O)NC)nc4)CC3)CC2)[nH]c1=O` [Compound 29], 5.00 to 6.00; that for `CNC(=O)c1ccc(N2CC(N3CCCC(c4nc5ccccc5c(=O)[nH]4)C3)C2)cn1` (single isomer, unassigned) [Compound 23a], 6.00 to 7.00. Consider `CCc1cnc(C2CCCN(C3CCC(F)(F)CC3)C2)[nH]c1=O` (single isomer, unassigned) [Compound 24b], for which, in experiment [1] (setting [6]), the pIC50 was 5.00 to 6.00. In the case of `O=c1[nH]c(C2CCCN(C3CCC(F)(F)CC3)C2)nc2ccccc12` (single isomer, unassigned) [Compound 3b], the pIC50 in experiment [1] (setting [6]) is 6.00 to 7.00. As to `CCc1cnc(-c2ccn(C3CCN(c4ccc(C(=O)NC)nc4)CC3)c2)[nH]c1=O` [Compound 22], the pIC50 in experiment [1] (setting [6]) is 5.00 to 6.00. On to `O=c1[nH]c(C2CCN(C3CCC(F)(F)CC3)C2)nc2ccccc12` (single isomer, unassigned) [Compound 4b], for which the pIC50 in experiment [1] (setting [6]) was 6.00 to 7.00. Regarding `CNC(=O)c1ccc(N2CCC(N3CCCC(c4nc5ccccc5c(=O)[nH]4)C3)CC2)c(C)n1` (stereo not shown) [Compound 131], the pIC50 in experiment [1] (setting [6]) was 5.00 to 6.00.

With `CNC(=O)c1ccc(N2CCC(n3ccc(-c4nc5ccccc5c(=O)[nH]4)n3)CC2)cn1` [Compound 15], the negative logarithm of the IC50 (pIC50) in experiment [1] (setting [6]) was 6.00 to 7.00.

With `CNC(=O)c1ccc(N(C)CCN2CCCC(Cc3nc4ccccc4c(=O)[nH]3)C2)cn1` (single isomer, unassigned) [Compound 13a], the pIC50 in experiment [1] (setting [6]) was 5.00 to 6.00. The same measure, in the same setting: the value for `CNC(=O)c1ccc(OCCN2CCCC(Cc3nc4ccccc4c(=O)[nH]3)C2)cn1` (single isomer, unassigned) [Compound 14a, N-methyl-5-(2-(3-((4-oxo-3,4-dihydroquinazolin-2-yl)methyl)piperidin-1-yl)ethoxy)picolinamide] was 5.00 to 6.00; that for `CNC(=O)c1ccc(N2CCC(n3ccc(-c4nc5ccccc5c(=O)[nH]4)c3)CC2)cn1` [Compound 18] was 6.00 to 7.00; that for `CNC(=O)c1ccc(N(C)CCCN2CCC(c3nc4ccccc4c(=O)[nH]3)CC2)cn1` [Compound 12] was 6.00 to 7.00. In the case of `O=c1[nH]c(C2CCCN(C3CCC(F)(F)CC3)C2)nc2ccccc12` (single isomer, unassigned) [Compound 3a], the pIC50 in experiment [1] (setting [6]) is 6.00 to 7.00. For `CNC(=O)c1ccc(N2CC(N3CCC(c4nc5ccccc5c(=O)[nH]4)CC3)C2)cn1` [Compound 28], the pIC50 in experiment [1] (setting [6]) is 6.00 to 7.00.

As for `CCc1cnc(C2CCN(C3CCC(F)(F)CC3)CC2)[nH]c1=O` [Compound 21], the pIC50 in experiment [1] (setting [6]) was 5.00 to 6.00. As to `CNC(=O)c1ccc(N2CCC(N3CCC(c4nc5cc(Cl)ccc5c(=O)[nH]4)C3)CC2)cn1` (single isomer, unassigned) [Compound 87b], the results for the pKd in experiment [2] (PARP2 probe displacement HTRF) and in experiment [3] (setting [7]) were 5.00 to 6.00 and above 8.00, respectively. Moreover, the Selectivity entry in experiment [3] (probe displacement HTRF) is “+++ (+++ indicate a value of at least 100)”. The corresponding values for `CNC(=O)c1ccc(N2CCC(N3CCC(c4nc5cnccc5c(=O)[nH]4)C3)CC2)cn1` (single isomer, unassigned) [Compound 84a] are below 5.00, 5.00 to 6.00 and “− (− indicates a value of less than 10)”.

Source of the values: US20250152585A1, “PHARMACEUTICAL COMPOUND” (Duke Street Bio Limited, priority 2022, published 2025).
